Tests used:
Mice [1] = assay: Analgesic activity by pressure stimulation method, Method A (UGO BASILE analgesy meter Model 7,200, tail pressure in grams); assay type: in vivo; conditions: for ED50: Mus musculus, read-out: ED50 (dose that induced 50 percent of % of MPE)
Experimental: (§1) The analgesic activities of the peptide derivatives of the present invention were evaluated by the pressure stimulation method using one of two devices. In method A, analgesy meter Model 7,200 manufactured by UGO BASILE (Comerio, Italy) was used (units of tail pressure expressed in grams). In method B, an apparatus made by inventor Professor S. Sakurada was used (units of tail pressure expressed in mmHg). Mice were subjected to pressure stimulation at the bases of their tails at a given rate(Method A: 32 g/s; Method B: 10 mmHg/second). […] For the experiments, mice that normally responded to a given pressure of 100-200 g (Method A) or 40-50 mmHg (Method B) were used. The maximum stimulating pressure was 500 g (Method A) or 100 mmHg (Method B). Analgesic activity was calculated as percent of maximum possible effect (% of MPE) according to the equation: [formula]
(§2) Wherein Po is the pain reaction threshold before the administration of a drug; Pt is the pain reaction threshold “t” minutes after the administration of the drug; and Pc is the maximum stimulating pressure. ED5 0 values were calculated based on dose response curves as doses that induced 50 percent of % of MPE and analgesic activities of the drugs were compared. The results obtained from subcutaneous administration (s.c.; skin on the backs of the mice was used) and oral administration (p.o.) are shown in Table 3.

Mice [2] = assay: Analgesic activity by pressure stimulation method, Method B (apparatus made by Professor S. Sakurada, tail pressure in mmHg); assay type: in vivo; conditions: for ED50: Mus musculus, read-out: ED50 (dose that induced 50 percent of % of MPE)
Experimental: as §1, §2

Compound | ED50 (dose that induced 50 percent of % of MPE) (Mice [1]; p.o.) [mg/kg] | ED50 (dose that induced 50 percent of % of MPE) (Mice [1]; s.c.) [mg/kg] | ED50 (dose that induced 50 percent of % of MPE) (Mice [2]; s.c.) [mg/kg] | further results
CN1CC[C@]23c4c5ccc(O)c4O[C@H]2[C@@H](O)C=C[C@H]3[C@H]1C5 [morphine, reference compound] | – | – | – | ED50 (Mice [1]; po): 22.2 mg/kg; ED50 (Mice [1]; sc): 3.3 mg/kg; ED50 (Mice [2]; po): 29.6 mg/kg; ED50 (Mice [2]; sc): 4.6 mg/kg
H2NC(NH)-Tyr-D-Arg-Phe-N(CH3)CH2CH2COOH | 5.8 | 0.09 | – | –
H2NC(NH)-Tyr-D-Arg-Phe-N(CH3)CH2COHN2 | – | – | 0.27 | –
H2NC(NH)-Tyr-D-Arg-Phe-N(CH3)CH2COOH | – | – | 0.13 | ED50 (dose that induced 50 percent of % of MPE) (Mice [2]; p.o.): 4.9 mg/kg
H2NC(NH)-Tyr-D-Arg-Phe-N(Me)2 | – | – | 1.22 | –
H2NC(NH)-Tyr-D-Arg-Phe-NHCH2CH2COOH | 18.5 | 0.32 | – | –

— patent US20010007016A1, “PEPTIDE DERIVATIVES” (priority 1994, published 2001)
